Results as given in patent US5863935A, “Therapeutic heterocyclic compounds” (Zeneca Limited, priority 1990, dated 1999).

Experiments:
"5-HT1 -like" receptor = "5-HT1 -like" receptor (Oryctolagus cuniculus, UniProt P49144); assay: Agonist activity, contraction of rabbit lateral saphenous vein rings
dog = assay: 30-day escalating-dose toxicity study in dogs; format: in vivo; conditions: free base, 30 days, dosage increased from 2 mg/kg on Day 1 to 100 mg/kg on Day 30
Experimental: (§1) The hydrochloride salt of the compound of Synthetic Examples 2/3 was administered orally by gavage to Wistar rats as a solution in distilled water at dosages of 25, 100 and 200 mg/kg base and to Beagle dogs at dosages of 0.25, 0.50, 1.0 and 2.0 mg/kg base once a dav for 14 days. In a separate dog study over 30 days, the dosage of the free base was increased from 2 mg/kg on Day 1 to 100 mg/kg on Day 30. The free base was also administered orally to cynomolgus monkeys at a dosage of 50 mg/kg once a day for 15 days.

Beagle dogs = assay: 14-day oral toxicity in Beagle dogs; format: in vivo, dog; conditions: hydrochloride salt, oral gavage, Beagle dogs, 0.25, 0.50, 1.0 and 2.0 mg/kg base once a day for 14 days
Experimental: as §1

cynomolgus monkeys = conditions: cynomolgus monkey, in vivo, po, 50 mg/kg
Experimental: as §1

Chain of "5-HT1 -like" receptor (P49144 whole entry): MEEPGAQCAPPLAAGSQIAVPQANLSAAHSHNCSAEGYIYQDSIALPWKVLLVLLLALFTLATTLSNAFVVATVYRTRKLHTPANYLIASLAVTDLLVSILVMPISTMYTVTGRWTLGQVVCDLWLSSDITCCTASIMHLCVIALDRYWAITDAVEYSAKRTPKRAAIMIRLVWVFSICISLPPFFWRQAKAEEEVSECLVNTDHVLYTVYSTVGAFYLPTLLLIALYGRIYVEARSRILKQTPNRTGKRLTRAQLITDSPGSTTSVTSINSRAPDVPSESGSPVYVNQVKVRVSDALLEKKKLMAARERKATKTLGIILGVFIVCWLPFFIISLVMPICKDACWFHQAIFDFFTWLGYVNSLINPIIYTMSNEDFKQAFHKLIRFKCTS

`CN1CCC(c2c[nH]c3ccc(CC4COC(=O)N4)cc23)CC1` (racemic) [4/5, (±)-3-(1-methyl-4-piperidyl)-5-(2-oxo-1,3-oxazolidin-4-yl-methyl)-1H-indole] showed an EC50 ("5-HT1 -like" receptor) of 501 nM.

`CN(C)CCc1c[nH]c2ccc(C[C@H]3COC(=O)N3)cc12` [2/3, (S)-N,N-dimethyl-2-[5-(2-oxo-1,3-oxazolidin-4-ylmethyl)-1H-indol-3-yl]ethylamine 0.9 isopropanolate 0.5 hydrate] was tested, and the EC50 ("5-HT1 -like" receptor) was 100 nM, the Toxicity (dog) was “No evidence of toxicity” and the Toxicity (Beagle dogs) was “No evidence of toxicity”. The Toxicity (cynomolgus monkeys) was “No evidence of toxicity”.
